# Laboratory results from PMC3351140 (MedChemComm, 2011).
# Where a chain is given by its changes, count along the chain named. “And” between values parts separate entries of the source, which are not always exact repeats. Equal entries are not always repeated.
# Legend:
# [1] = target: T1, GCase (Homo sapiens, UniProt P04062); assay: Thermofunctional stabilization of GCase; assay type: biochemical; conditions: enzyme incubated at 51 °C for 60 minutes
# T1 sequence (P04062 40-536): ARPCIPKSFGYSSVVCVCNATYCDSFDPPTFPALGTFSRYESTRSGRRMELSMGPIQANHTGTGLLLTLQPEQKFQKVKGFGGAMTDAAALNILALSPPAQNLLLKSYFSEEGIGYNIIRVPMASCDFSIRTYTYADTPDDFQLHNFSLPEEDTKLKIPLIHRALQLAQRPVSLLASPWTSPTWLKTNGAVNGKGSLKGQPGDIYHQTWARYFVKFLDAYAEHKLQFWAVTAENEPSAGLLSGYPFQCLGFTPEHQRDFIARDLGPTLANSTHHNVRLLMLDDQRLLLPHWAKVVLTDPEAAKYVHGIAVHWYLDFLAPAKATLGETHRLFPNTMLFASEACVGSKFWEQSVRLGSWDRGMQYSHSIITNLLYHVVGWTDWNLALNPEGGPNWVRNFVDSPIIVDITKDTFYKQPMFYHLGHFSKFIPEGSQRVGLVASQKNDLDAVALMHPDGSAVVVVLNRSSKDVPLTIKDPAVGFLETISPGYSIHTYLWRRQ
# [2] = target: T2, N370S glucocerebrosidase (GCase) (Homo sapiens, UniProt P04062, N409S); assay: N370S spleen; assay type: biochemical; conditions: for fold loss of activity vs 8a: compared with 8a; for IC50: N370S tissue homogenate, 4-methylumbelliferone β-D glucopyranoside substrate (blue substrate)
# T2 sequence (P04062 40-536 N409S): T1 sequence (P04062 40-536) with N370S
# [3] = target: human SST4 receptor (Homo sapiens, UniProt P31391); assay: human SST4 receptor binding affinity assay; conditions: compared with 27
# [4] = test system: fibroblasts from patients with genotype N370S/N370S; assay: Translocation of N370S GCase to lysosomes, confocal microscopy; assay type: cell-based, human; conditions: 1 μM compound, five days, vs vehicle
# [5] = Mouse liver microsome stability; assay type: in vitro ADME; conditions: 60 minutes, in the presence of NADPH
# [6] = Pharmacokinetics after intraperitoneal administration to mice; assay type: in vivo, male C57BL/6 mice
# [7] = target: T1, GCase; assay: Isolated enzyme GCase assay; assay type: biochemical
# [8] = target: T1, GCase; assay: GCase inhibition with alternative substrates; assay type: biochemical
# human SST4 receptor, sequence (P31391 whole entry): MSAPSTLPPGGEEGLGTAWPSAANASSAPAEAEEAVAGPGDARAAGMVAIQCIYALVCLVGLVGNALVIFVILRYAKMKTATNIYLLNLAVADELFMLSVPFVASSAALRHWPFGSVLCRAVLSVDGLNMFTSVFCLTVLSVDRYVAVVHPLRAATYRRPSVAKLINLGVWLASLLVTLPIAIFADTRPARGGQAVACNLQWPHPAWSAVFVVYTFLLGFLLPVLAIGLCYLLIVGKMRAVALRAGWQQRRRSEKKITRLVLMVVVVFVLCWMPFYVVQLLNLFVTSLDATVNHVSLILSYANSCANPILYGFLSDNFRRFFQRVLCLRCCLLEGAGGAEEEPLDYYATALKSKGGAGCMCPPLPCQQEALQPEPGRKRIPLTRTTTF
structure (smiles),measurement,setting,value
"OC[C@H]1CNC[C@@H](O)[C@@H]1O [Isofagomine, reference compound]",retention of GCase function after heating,[1],retain considerable function
S=C(NCCCc1cnc[nH]1)NCCCN(Cc1ccc(Cl)cc1)c1ccc(Br)cc1 [compound 24],fold more potent than compound 27 (GCase),[2]; compared with 27,about 10 fold
same,fold less potent than 27 (SST4 binding),[3],about 5 fold
same,co-localization of N370S GCase with LAMP-1 (lysosomes),[4],Increased co-localization
CN(CCCN(Cc1ccc(Cl)cc1)c1ccc(Br)cn1)C(=S)NCCCc1cnc[nH]1 [compound 26],fold loss of activity vs 8a,[2],2 fold
CC(=O)NCCCNC(=S)NCCCN(Cc1ccc(Cl)cc1)c1ccc(Br)cn1 [13b],IC50,[2],inactive
CCCCNC(=S)NCCCN(Cc1ccc(Cl)c(Cl)c1)c1ccc(Br)cn1 [compound 25],IC50,[2],inactive
CN(CCCc1cnc[nH]1)C(=S)NCCCN(Cc1ccc(Cl)cc1)c1ccc(Br)cn1 [compound 27],fold loss of activity vs 8a,[2],10 fold
S=C(NCCCc1c[nH]cn1)NCCCN(Cc1ccc(Cl)c(Cl)c1)c1ccc(Br)cn1 [8i],retention of GCase function after heating,[1],retain considerable function
same,co-localization of N370S GCase with LAMP-1 (lysosomes),[4],Increased co-localization
same,parent molecule remaining,[5],58%
same,"Plasma concentration, Mean","[6]; 30 mg/kg IP, 0 hr",BQL
same,"Plasma concentration, individual","[6]; 30 mg/kg IP, 0 hr",BQL
same,"Plasma concentration, individual","[6]; 30 mg/kg IP, 0.083 hr, listed as ML156 (8i)",1820 ng/mL and 1410 ng/mL
same,"Plasma concentration, individual","[6]; 30 mg/kg IP, 0.25 hr, listed as ML156 (8i)",3010 ng/mL and 1640 ng/mL
same,"Plasma concentration, individual","[6]; 30 mg/kg IP, 0.5 hr, listed as ML156 (8i)",2270 ng/mL and 3270 ng/mL
same,"Plasma concentration, individual","[6]; 30 mg/kg IP, 1 hr, listed as ML156 (8i)",3770 ng/mL and 3150 ng/mL
same,"Plasma concentration, individual","[6]; 30 mg/kg IP, 2 hr, listed as ML156 (8i)",3840 ng/mL
same,"Plasma concentration, individual","[6]; 30 mg/kg IP, 4 hr, listed as ML156 (8i)",2030 ng/mL and 2570 ng/mL
same,"Plasma concentration, individual","[6]; 30 mg/kg IP, 8 hr, listed as ML156 (8i)",1190 ng/mL and 357 ng/mL and 714 ng/mL
same,"Plasma concentration, individual","[6]; 30 mg/kg IP, 12 hr, listed as ML156 (8i)",127 ng/mL and 80.7 ng/mL
same,"Plasma concentration, individual","[6]; 30 mg/kg IP, 24 hr, listed as ML156 (8i)",12.6 ng/mL and 9.98 ng/mL
same,brain exposure,"[6]; brain, additional pharmacokinetic studies",reasonable levels of the compound also reached the brain
same,inhibitory activity in isolated enzyme assays,[7],displayed inhibitory activity
same,inhibition of hydrolysis of resorufin-β-glucopyranoside (red substrate),[8],effectively inhibited
